In the supplement of paper PMC13380429:

How the values were obtained:
Calu-3 [1] = test: cell viability relative to DMSO; higher = less toxic; details: 72 h
HepG2 [2] = test: as above; details: 72 h
Vero E6 [3] = test: as above; details: 72 h
Caco-2 [4] = test: as above; details: 72 h
U2OS [5] = test: as above; details: 72 h
Calu-3 [6] = test: drug sensitivity score (DSS) for viability; higher = more toxic; extreme values may be limits of the assay; details: 72 h
HepG2 [7] = test: as above; details: 72 h
Vero E6 [8] = test: as above; details: 72 h
Caco-2 [9] = test: as above; details: 72 h
U2OS [10] = test: as above; details: 72 h
[11] = system: A549-ACE2 infected with SARS-CoV-2; test: SARS-CoV-2 infection rate relative to DMSO; higher = more infection; details: 24 h
[12] = system: A549-ACE2 infected with SARS-CoV-2; test: morphology score (similarity to uninfected cells); higher = more like uninfected cells; details: 24 h
[13] = system: A549-ACE2 infected with SARS-CoV-2; test: cell count relative to DMSO; higher = less toxic; details: 24 h
Calu-3 [14] = test: relative viability EC50 (midpoint between 100% and the lowest measured viability); higher = less toxic; details: 72 h
HepG2 [15] = test: as above; details: 72 h
Vero E6 [16] = test: as above; details: 72 h
Caco-2 [17] = test: as above; details: 72 h
U2OS [18] = test: as above; details: 72 h
A549-ACE2 = test: drug-induced phospholipidosis relative to tamoxifen; higher = more phospholipidosis

COC(=O)[C@@]12OC[C@]34[C@H]([C@@H](O)[C@@H]1O)[C@@]1(C)CC(=O)C(O)=C(C)[C@@H]1C[C@H]3OC(=O)[C@H](OC(=O)/C=C(\C)C(C)C)[C@@H]24 [bruceantin]
Details	SARS-CoV-2 infection rate, [11] [%]	cell count, [13] [%]	cell viability, Caco-2 [4] [%]	cell viability, Calu-3 [1] [%]	cell viability, HepG2 [2] [%]	cell viability, U2OS [5] [%]	cell viability, Vero E6 [3] [%]	morphology score, [12]
1 nM	–	–	102	96.7	92.8	103	101	–
10 nM	–	–	78.4	102	76.2	58.3	104	–
100 nM	–	–	37.7	41.4	13.8	9	59.1	–
0.1 µM	12	62	–	–	–	–	–	0.3
0.3 µM	16	62	–	–	–	–	–	0.26
1000 nM	–	–	25.5	26.5	4.6	1.8	11.4	–
1 µM	20	54	–	–	–	–	–	0.24
3 µM	12	38	–	–	–	–	–	0.33
10000 nM	–	–	22.4	21	0.9	0.1	2.5	–

Details	drug sensitivity score	relative viability EC50 [nM]
Caco-2 [9]	23.9	–
Caco-2 [17]	–	26.1
Calu-3 [6]	21.3	–
Calu-3 [14]	–	65.9
HepG2 [7]	31	–
HepG2 [15]	–	23.8
U2OS [10]	34.5	–
U2OS [18]	–	13.3
Vero E6 [8]	21.5	–
Vero E6 [16]	–	132

CC[C@H]1CN2CCc3cc(OC)c(OC)cc3[C@@H]2C[C@@H]1C[C@H]1NCCc2cc(OC)c(OC)cc21 [emetine]
Details	SARS-CoV-2 infection rate, [11] [%]	cell count, [13] [%]	cell viability, Calu-3 [1] [%]	cell viability, HepG2 [2] [%]	cell viability, U2OS [5] [%]	cell viability, Vero E6 [3] [%]	morphology score, [12]
1 nM	–	–	105	91.7	101	94.3	–
10 nM	–	–	109	97.8	99.7	103	–
100 nM	–	–	99.7	26.1	43.5	54.9	–
0.1 µM	5	102	–	–	–	–	0.87
0.3 µM	5	91	–	–	–	–	0.7
1000 nM	–	–	35.3	14.5	7	14	–
1 µM	19	69	–	–	–	–	0.44
3 µM	23	59	–	–	–	–	0.43
10000 nM	–	–	30.8	4.5	2	6.9	–

Details	drug sensitivity score	relative viability EC50 [nM]
Calu-3 [6]	12	–
Calu-3 [14]	–	375
HepG2 [7]	26.2	–
HepG2 [15]	–	54.3
U2OS [10]	24.3	–
U2OS [18]	–	84.6
Vero E6 [8]	21.9	–
Vero E6 [16]	–	107

A549-ACE2, 24 h
Details	drug-induced phospholipidosis [%]
0.3 µM	3.73
0.833333 µM	5.74

CC(=O)O[C@@H]1C[C@H]2C(C)(C)C(=O)C=C[C@]2(C)[C@H]2CC[C@@]3(C)[C@H](c4ccoc4)OC(=O)[C@H]4O[C@]43[C@@]21C [gedunin]
Details	SARS-CoV-2 infection rate, [11] [%]	cell count, [13] [%]	cell viability, Caco-2 [4] [%]	cell viability, Calu-3 [1] [%]	cell viability, HepG2 [2] [%]	cell viability, U2OS [5] [%]	cell viability, Vero E6 [3] [%]	morphology score, [12]
1 nM	–	–	97.5	102	105	99.5	101	–
10 nM	–	–	94.6	103	93.8	100	102	–
100 nM	–	–	102	115	103	95.7	102	–
0.3 µM	107	101	–	–	–	–	–	0.03
1000 nM	–	–	103	97.2	94.9	100	94.3	–
3 µM	95	96	–	–	–	–	–	0.18
10000 nM	–	–	86.8	102	80.6	95.4	86.6	–
10 µM	98	108	–	–	–	–	–	0.06
30 µM	85	103	–	–	–	–	–	0.52

Details	drug sensitivity score	relative viability EC50 [nM]
Caco-2 [9]	0.1	–
Caco-2 [17]	–	> 10000
Calu-3 [6]	0	–
Calu-3 [14]	–	> 10000
HepG2 [7]	1.2	–
HepG2 [15]	–	> 10000
U2OS [10]	0	–
U2OS [18]	–	> 10000
Vero E6 [8]	0.5	–
Vero E6 [16]	–	> 10000

drug-induced phospholipidosis [%], A549-ACE2
Details	0.3 µM	0.833333 µM	3.33333 µM	6.66667 µM	10 µM	30 µM
24 h	2.13	1.52	8.1	16.6	23.3	40.1
48 h	7.32	5.06	10.1	18	24.2	37.8
72 h	7.41	2.35	7.47	17	21.7	40.6

CCCN1CCCC[C@H]1C(=O)Nc1c(C)cccc1C [ropivacaine]
cell viability [%]
Details	Caco-2 [4]	Calu-3 [1]	HepG2 [2]	U2OS [5]	Vero E6 [3]
1 nM	90.8	107	96.5	96.6	103
10 nM	101	106	96.7	97.9	103
100 nM	92.6	90.7	89.2	92.2	98.3
1000 nM	102	103	95.6	99	98.7
10000 nM	95.3	97.5	99.4	97.4	98.1

Details	drug sensitivity score	relative viability EC50 [nM]
Caco-2 [9]	0	–
Caco-2 [17]	–	> 10000
Calu-3 [6]	0	–
Calu-3 [14]	–	> 10000
HepG2 [7]	0	–
HepG2 [15]	–	> 10000
U2OS [10]	0	–
U2OS [18]	–	> 10000
Vero E6 [8]	0	–
Vero E6 [16]	–	> 10000

O=C(/C=C/c1ccc(O)c(O)c1)O[C@H](Cc1ccc(O)c(O)c1)C(=O)O [rosmarinic-acid]
cell viability [%]
Details	Caco-2 [4]	Calu-3 [1]	HepG2 [2]	U2OS [5]	Vero E6 [3]
1 nM	91.5	105	98.8	101	102
10 nM	102	109	111	103	103
100 nM	87.7	101	106	94.8	99.1
1000 nM	99.1	88.5	96.7	104	96.4
10000 nM	88	94.5	102	98.6	99.6

Details	drug sensitivity score	relative viability EC50 [nM]
Caco-2 [9]	0	–
Caco-2 [17]	–	> 10000
Calu-3 [6]	0.4	–
Calu-3 [14]	–	> 10000
HepG2 [7]	0	–
HepG2 [15]	–	> 10000
U2OS [10]	0	–
U2OS [18]	–	> 10000
Vero E6 [8]	0	–
Vero E6 [16]	–	> 10000
